Reference: patent US20070042971A1, “Crystalline compound of 4'-demethyl-4'-phosphate-2", 3"-bispentafluorophenoxy-acetyl-4", 6"-ethylidene-beta-d-epipodophyllotoxin glucoside either in its free form or solvated with ethanol” (Pierre Fabre Medicament, priority 2003, published 2007)
In brackets after ≈: the same amount, converted by molar mass. Entries after “also recorded” stand apart in the source; their conditions may differ. Where two headings read alike, the source gives them in different places.

What was measured:
P388 leukemia [1] = settings: mice implanted with the P388 leukemia model; cited from earlier work
[2] = cited from earlier work
[3] = powdered form; for % of degradation products after 1 month at 30° C. with 75% relative humidity: open bottle
P388 leukemia [4] = tested on: P388 leukemia
[5] = Solubility in water and ethanol; assay type: physicochemical
[6] = listed as hemiethanolate compound of formula 3 in crystalline form

In the case of “4′-demethylepipodophyllotoxin 2″,3″-bispentafluoro-phenoxyacetyl-4″,6″-ethylidene-β-D-glucoside 4′-phosphate [Compound of formula 1]”, the survival (P388 leukemia [1]) is listed as “long survival”, the stability on conservation (conserved at 4° C. and, a fortiori, at ambient temperature) is listed as “degrades over time” and the stability (usual conditions of neutral and acid pH and of temperature) is listed as “stable”.
In the case of `COc1cc([C@@H]2c3cc4c(cc3[C@@H](O[C@@H]3O[C@@H]5CO[C@@H](C)O[C@H]5[C@H](O)[C@H]3O)[C@H]3COC(=O)[C@H]23)OCO4)cc(OC)c1OP(=O)(O)O` [Etopophos], the solubility in water [2] is given as 100 mg/mL (≈ 150 mM).
In the case of “hemiethanolate of 4′-demethylepipodophyllotoxin 2″,3″-bispentafluoro-phenoxyacetyl-4″,6″-ethylidene-β-D-glucoside 4′-phosphate”, the “% of degradation products after 1 month at 30° C. with 75% relative humidity” value [3] is reported as 1.8%, the “% of degradation products after 1 month at 30° C. with 75% relative humidity” value [3, 6] is reported as 1.8% and the “% of degradation products after 1 month at 40° C. in a closed bottle” value [3] is reported as 1.5%. The “% of degradation products after 1 month at 40° C. in a closed bottle” value [3, 6] was 1.5%, the “in vivo antitumor activity (in words)” value (P388 leukemia [4]; P388 leukemia model, overall, listed as compound of formula 3 in crystalline form) was “high-level antitumor activity” and the “in vivo antitumor activity (in words)” value (P388 leukemia [4]; P388 leukemia model, overall, listed as hemiethanolate of formula 3) was “exhibits the required pharmacological activity”. The “prolongation of the survival of the animals” value (“prolongation” for short) (P388 leukemia [4]; dose 40 mg/kg) was 43%, the “T/C values (%)” value (P388 leukemia [4]; dose 40 mg/kg, single intraperitoneal injection on day 1, median survival treated/control x 100) was 143% and the “T/C values (%)” value (P388 leukemia [4]; dose 80 mg/kg, single intraperitoneal injection on day 1, median survival treated/control x 100) was 143%. For the same compound, the “prolongation” value (P388 leukemia [4]; dose 160 mg/kg) was 229% and the “T/C values (%)” value (P388 leukemia [4]; dose 160 mg/kg, single intraperitoneal injection on day 1, median survival treated/control x 100) was 329%.
In the case of `COc1cc(C2c3cc4c(cc3[C@@H](OC3OC5COC(C)OC5C(OC(=O)COc5c(F)c(F)c(F)c(F)c5F)C3OC(=O)COc3c(F)c(F)c(F)c(F)c3F)[C@H]3COC(=O)C23)OCO4)cc(OC)c1OP(=O)(O)O` (stereo partly drawn) [Crystalline formula 2, 4′-demethylepipodophyllotoxin 2″,3″-bispentafluorophenoxyacetyl-4″,6″-ethylidene-β-D-glucoside 4′-phosphate], the “in vivo antitumor activity (in words)” value (P388 leukemia [4]; mouse, in vivo) is reported as “exhibits the required pharmacological activity; also recorded: high-level antitumor activity”, the “prolongation” value (P388 leukemia [4]; mouse, in vivo, 40 mg/kg) is reported as 43% and the “prolongation” value (P388 leukemia [4]; mouse, in vivo, 160 mg/kg) is reported as 200%. For the same compound, the “T/C values (%)” value (P388 leukemia [4]; mouse, in vivo, ip, 40 mg/kg) was 143%, the “T/C values (%)” value (P388 leukemia [4]; mouse, in vivo, ip, 80 mg/kg) was 157% and the “T/C values (%)” value (P388 leukemia [4]; mouse, in vivo, ip, 160 mg/kg) was 300%.
For `COc1cc(C2c3cc4c(cc3[C@@H](OC3OC5COC(C)OC5C(OC(=O)COc5c(F)c(F)c(F)c(F)c5F)C3OC(=O)COc3c(F)c(F)c(F)c(F)c3F)[C@H]3COC(=O)C23)OCO4)cc(OC)c1OP(=O)(O)O` (stereo partly drawn) [Compound of formula 2 in amorphous form, 4′-demethylepipodophyllotoxin 2″,3″-bispentafluoro-phenoxyacetyl-4″,6″-ethylidene-β-D-glucoside 4′-phosphate], the “solubility in ethanol (in words)” value ([5]; ethanol) was “soluble”, the “solubility in water (in words)” value ([5]; water) was “is not” and the “antitumor activity (in words)” value (P388 leukemia [4]; mouse, in vivo) was “does not induce any significant antitumor activity”. The “in vivo antitumor activity (in words)” value (P388 leukemia [4]; mouse, in vivo) was “did not have the in vivo activity”, the “T/C values (%)” value (P388 leukemia [4]; mouse, in vivo, ip, 40 mg/kg) was 100% and the “T/C values (%)” value (P388 leukemia [4]; mouse, in vivo, ip, 80 mg/kg) was 114%. The “T/C values (%)” value (P388 leukemia [4]; mouse, in vivo, ip, 160 mg/kg) was 157%.
